Results reported in US9758524B2, “4-imidazopyridazin-1-yl-benzamides as Btk inhibitors” (Merck Sharp & Dohme B.V., priority 2011, dated 2017).
Read-outs that look alike come from different tables or passages of the source.

Experiments:
Src enzyme = Src enzyme (Homo sapiens (Human), UniProt P12931); experiment: Src enzyme activity (IMAP fluorescence polarization assay); conditions: read-out: EC50 Src activity values; IMAP, 60 min pre-incubation, 4 μM ATP
Lyn enzyme = Lyn enzyme (Homo sapiens (Human), UniProt P07948); experiment: Lyn enzyme activity (IMAP fluorescence polarization assay); conditions: for EC50 Lyn activity values: bin bound in μM
FynT enzyme = FynT enzyme (Homo sapiens (Human), UniProt P06241); experiment: FynT enzyme activity (IMAP fluorescence polarization assay); assay type: biochemical; conditions: 60 min pre-incubation, 0.2 μM ATP
How it was run: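 Human FynT pre-incubated with compounds 60 min at room temperature, then reacted 2 h at room temperature with fluorescein-labelled p34cdc2 peptide (100 nM final). Stopped with IMAP binding solution; fluorescence polarization read after 60 min. Activity as % of ±ATP control difference; EC50 by curve fitting.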

Lck enzyme = Lck enzyme (Homo sapiens (Human), UniProt P06239); experiment: Lck enzyme activity (IMAP fluorescence polarization assay)
Btk enzyme (His-Btk) = Btk enzyme (His-Btk) (Homo sapiens (Human), UniProt Q06187); experiment: Btk enzyme activity (IMAP fluorescence polarization assay)
[1] = read-out: EC50 Lyn activity values, 60 min pre-incubation, 2 μM ATP, bin bound in μM
[2] = read-out: EC50 Lck activity values, IMAP, 60 min pre-incubation, 6 μM ATP, bin bound in μM
[3] = read-out: EC50 Btk activity values, IMAP, 60 min pre-incubation, 5 μM ATP, bin bound in nM
[4] = IMAP, 60 min pre-incubation, 6 μM ATP, bin bound in μM
[5] = 60 min pre-incubation, 2 μM ATP
[6] = EC50 Lyn activity values, 60 min pre-incubation, 2 μM ATP, bin bound in nM

Lck enzyme, sequence (P06239 whole entry): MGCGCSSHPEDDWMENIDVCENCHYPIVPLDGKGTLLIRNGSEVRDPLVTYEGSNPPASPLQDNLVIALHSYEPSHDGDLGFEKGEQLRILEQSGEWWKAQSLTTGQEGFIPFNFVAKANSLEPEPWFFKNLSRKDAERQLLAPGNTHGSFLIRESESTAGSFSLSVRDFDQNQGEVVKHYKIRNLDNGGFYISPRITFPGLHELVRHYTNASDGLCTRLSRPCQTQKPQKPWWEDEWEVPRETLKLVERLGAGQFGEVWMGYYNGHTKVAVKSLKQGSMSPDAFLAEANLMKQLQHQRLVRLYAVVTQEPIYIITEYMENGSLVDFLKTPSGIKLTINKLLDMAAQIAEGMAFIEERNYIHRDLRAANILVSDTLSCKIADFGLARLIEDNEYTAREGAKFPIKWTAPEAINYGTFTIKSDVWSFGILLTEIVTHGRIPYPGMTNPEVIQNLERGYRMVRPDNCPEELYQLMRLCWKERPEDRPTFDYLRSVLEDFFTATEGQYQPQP
FynT enzyme, sequence (P06241 other isoform, or with tags, fused parts or gaps): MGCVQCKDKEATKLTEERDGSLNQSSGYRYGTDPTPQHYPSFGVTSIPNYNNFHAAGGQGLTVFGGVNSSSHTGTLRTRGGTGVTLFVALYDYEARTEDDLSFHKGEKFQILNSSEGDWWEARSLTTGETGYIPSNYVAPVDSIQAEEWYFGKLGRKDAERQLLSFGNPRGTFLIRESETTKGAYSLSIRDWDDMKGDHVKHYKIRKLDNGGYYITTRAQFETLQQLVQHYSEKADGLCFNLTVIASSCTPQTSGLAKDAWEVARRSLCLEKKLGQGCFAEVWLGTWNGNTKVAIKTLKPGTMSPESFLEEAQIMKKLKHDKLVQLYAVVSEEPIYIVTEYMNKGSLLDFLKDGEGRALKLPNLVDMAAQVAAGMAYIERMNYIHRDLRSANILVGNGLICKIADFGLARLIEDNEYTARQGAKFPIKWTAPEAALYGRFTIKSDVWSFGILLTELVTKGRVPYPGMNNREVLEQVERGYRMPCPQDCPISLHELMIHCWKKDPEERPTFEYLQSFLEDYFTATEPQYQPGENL
Btk enzyme (His-Btk), sequence (Q06187 whole entry): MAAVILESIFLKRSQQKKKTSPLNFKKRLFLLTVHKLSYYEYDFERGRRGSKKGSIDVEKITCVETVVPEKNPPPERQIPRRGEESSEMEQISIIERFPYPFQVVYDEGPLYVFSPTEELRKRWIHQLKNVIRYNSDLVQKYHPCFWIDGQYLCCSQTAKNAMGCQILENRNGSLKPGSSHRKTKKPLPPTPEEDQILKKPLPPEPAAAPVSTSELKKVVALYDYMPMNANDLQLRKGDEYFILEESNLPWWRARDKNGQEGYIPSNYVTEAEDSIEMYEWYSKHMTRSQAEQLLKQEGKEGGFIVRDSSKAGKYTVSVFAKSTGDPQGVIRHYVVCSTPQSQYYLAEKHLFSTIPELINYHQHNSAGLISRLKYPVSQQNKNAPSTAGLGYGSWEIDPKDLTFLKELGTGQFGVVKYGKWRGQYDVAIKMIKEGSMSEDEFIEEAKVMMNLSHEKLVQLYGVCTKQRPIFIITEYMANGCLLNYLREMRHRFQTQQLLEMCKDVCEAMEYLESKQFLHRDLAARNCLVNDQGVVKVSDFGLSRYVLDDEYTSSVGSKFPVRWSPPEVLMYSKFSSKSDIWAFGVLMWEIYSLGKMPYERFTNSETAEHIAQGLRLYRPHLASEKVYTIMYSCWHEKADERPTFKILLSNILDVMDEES
Lyn enzyme, sequence (P07948 whole entry): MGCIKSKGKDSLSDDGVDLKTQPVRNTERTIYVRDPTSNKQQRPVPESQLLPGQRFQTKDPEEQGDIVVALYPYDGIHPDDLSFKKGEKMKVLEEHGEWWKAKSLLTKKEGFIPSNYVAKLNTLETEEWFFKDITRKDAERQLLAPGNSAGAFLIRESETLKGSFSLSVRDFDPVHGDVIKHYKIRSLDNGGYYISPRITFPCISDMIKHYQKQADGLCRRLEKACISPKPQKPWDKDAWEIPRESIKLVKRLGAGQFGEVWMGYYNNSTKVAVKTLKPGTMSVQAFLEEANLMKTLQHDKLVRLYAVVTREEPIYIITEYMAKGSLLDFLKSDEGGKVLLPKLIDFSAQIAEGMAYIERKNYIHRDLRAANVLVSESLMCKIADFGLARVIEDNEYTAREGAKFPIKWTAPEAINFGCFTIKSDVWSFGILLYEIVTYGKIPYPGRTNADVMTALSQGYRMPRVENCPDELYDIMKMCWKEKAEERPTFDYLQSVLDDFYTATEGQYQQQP
Src enzyme, sequence (P12931 whole entry, looked up): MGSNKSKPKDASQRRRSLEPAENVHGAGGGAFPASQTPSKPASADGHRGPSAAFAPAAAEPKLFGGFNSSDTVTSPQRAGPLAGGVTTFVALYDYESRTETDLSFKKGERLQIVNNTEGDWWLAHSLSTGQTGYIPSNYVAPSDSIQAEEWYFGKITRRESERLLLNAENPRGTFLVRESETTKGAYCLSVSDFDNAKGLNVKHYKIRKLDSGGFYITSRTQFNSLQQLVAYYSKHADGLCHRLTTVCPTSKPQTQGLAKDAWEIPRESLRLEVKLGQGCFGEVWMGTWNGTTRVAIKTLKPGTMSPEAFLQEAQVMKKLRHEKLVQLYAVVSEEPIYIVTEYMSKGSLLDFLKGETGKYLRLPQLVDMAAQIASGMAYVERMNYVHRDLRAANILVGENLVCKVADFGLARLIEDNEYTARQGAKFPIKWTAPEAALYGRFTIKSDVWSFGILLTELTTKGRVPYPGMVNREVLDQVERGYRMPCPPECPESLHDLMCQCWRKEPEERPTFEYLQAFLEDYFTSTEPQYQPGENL

| SMILES | EC50 (Src enzyme) [nM] | EC50 (Lyn enzyme; [1]) [µM] | EC50 (FynT enzyme) [nM] | EC50 (Lck enzyme; [2]) [µM] | EC50 (Btk enzyme (His-Btk); [3]) [nM] | EC50 (Btk enzyme (His-Btk)) [nM] | EC50 Btk activity values (Btk enzyme (His-Btk); IMAP, 60 min pre-incubation, 5 μM ATP, bin bound in nM) [nM] | EC50 (Lck enzyme) [µM] | EC50 Lck activity values (Lck enzyme; [4]) [µM] | EC50 Lyn activity values (Lyn enzyme; [5]) [µM] | EC50 (Lyn enzyme; [6]) [µM] |
| --- | --- | --- | --- | --- | --- | --- | --- | --- | --- | --- | --- |
| CCc1cnc(NC(=O)c2ccc(-c3nc([C@@H]4CCCCN4C(=O)c4ccnc(Cl)n4)n4ccnc(N)c34)cc2)s1 [Example 118, (S)-4-(8-amino-3-(1-(2-chloropyrimidine-4-carbonyl)piperidin-2-yl)imidazo[1,5-a]pyrazin-1-yl)-N-(5-ethylthiazol-2-yl)benzamide] | ≥ 1000 | ≥ 1 | ≥ 1000 | ≥ 1 | < 10 | – | – | – | – | – | – |
| Nc1nccn2c([C@@H]3CCCN3C(=O)c3ccnc(Cl)n3)nc(-c3ccc(C(=O)Nc4cc(C(F)(F)F)ccn4)cc3)c12 [Example 119, (S)-4-(8-amino-3-(1-(2-chloropyrimidine-4-carbonyl)pyrrolidin-2-yl)imidazo[1,5-a]pyrazin-1-yl)-N-(4-(trifluoromethyl)pyridin-2-yl)benzamide] | ≥ 1000 | ≥ 1 | ≥ 1000 | ≥ 1 | – | 10 to 100 | <100 | – | – | – | – |
| COC/C=C/C(=O)N1CCOC[C@H]1c1nc(-c2ccc(C(=O)Nc3ccccn3)cc2)c2c(N)nccn12 [Example 120, (R,E)-4-(8-amino-3-(4-(4-methoxybut-2-enoyl)morpholin-3-yl)imidazo[1,5-a]pyrazin-1-yl)-N-(pyridin-2-yl)benzamide] | ≥ 1000 | ≥ 1 | ≥ 1000 | ≥ 1 | < 10 | – | – | – | – | – | – |
| CCCc1ccnc(NC(=O)c2ccc(-c3nc([C@@H]4CCCCN4C(=O)/C=C/COC)n4ccnc(N)c34)cc2)c1 [Example 121, (S,E)-4-(8-amino-3-(1-(4-methoxybut-2-enoyl)piperidin-2-yl)imidazo[1,5-a]pyrazin-1-yl)-N-(4-propylpyridin-2-yl)benzamide] | ≥ 1000 | ≥ 1 | ≥ 1000 | ≥ 1 | < 10 | – | – | – | – | – | – |
| C=CC(=O)N1CCC[C@H]1c1nc(-c2ccc(C(=O)Nc3cc(C#N)ccn3)cc2)c2c(N)nccn12 [Example 122, (S)-4-(3-(1-acryloylpyrrolidin-2-yl)-8-aminoimidazo[1,5-a]pyrazin-1-yl)-N-(4-cyanopyridin-2-yl)benzamide] | ≥ 1000 | ≥ 1 | ≥ 1000 | – | < 10 | – | – | 0.1 to 1 | <1 | – | – |
| CC#CC(=O)N1CCC[C@H]1c1nc(-c2ccc(C(=O)Nc3cc(OC)ccn3)cc2)c2c(N)nccn12 [Example 123, (S)-4-(8-amino-3-(1-but-2-ynoylpyrrolidin-2-yl)imidazo[1,5-a]pyrazin-1-yl)-N-(4-methoxypyridin-2-yl)benzamide] | ≥ 1000 | ≥ 1 | ≥ 1000 | ≥ 1 | < 10 | – | – | – | – | – | – |
| C=CC(=O)N1CCC[C@H]1c1nc(-c2ccc(C(=O)Nc3cc(C)ccn3)cc2)c2c(N)nccn12 [Example 124, (S)-4-(3-(1-acryloylpyrrolidin-2-yl)-8-aminoimidazo[1,5-a]pyrazin-1-yl)-N-(4-methylpyridin-2-yl)benzamide] | ≥ 1000 | – | ≥ 1000 | – | < 10 | – | – | 0.1 to 1 | <1 | <1 | 0.1 to 1 |
| C=CC(=O)N1CCC[C@H]1c1nc(-c2ccc(C(=O)Nc3cc(CCC)ccn3)cc2)c2c(N)nccn12 [Example 125, (S)-4-(3-(1-acryloylpyrrolidin-2-yl)-8-aminoimidazo[1,5-a]pyrazin-1-yl)-N-(4-propylpyridin-2-yl)benzamide] | ≥ 1000 | – | ≥ 1000 | – | < 10 | – | – | 0.1 to 1 | <1 | <1 | 0.1 to 1 |
| C=CC(=O)N1CCC[C@H]1c1nc(-c2ccc(C(=O)Nc3cc(CC)ccn3)cc2)c2c(N)nccn12 [Example 126, (S)-4-(3-(1-acryloylpyrrolidin-2-yl)-8-aminoimidazo[1,5-a]pyrazin-1-yl)-N-(4-ethylpyridin-2-yl)benzamide] | ≥ 1000 | – | ≥ 1000 | – | < 10 | – | – | 0.1 to 1 | <1 | <1 | 0.1 to 1 |
| COC/C=C/C(=O)N1CCC[C@H]1c1nc(-c2ccc(C(=O)Nc3cc(C(F)(F)F)ccn3)cc2)c2c(N)nccn12 [Example 128, (S,E)-4-(8-amino-3-(1-(4-methoxybut-2-enoyl)pyrrolidin-2-yl)imidazo[1,5-a]pyrazin-1-yl)-N-(4-(trifluoromethyl)pyridin-2-yl)benzamide] | ≥ 1000 | ≥ 1 | ≥ 1000 | ≥ 1 | < 10 | – | – | – | – | – | – |
| Cc1ccnc(NC(=O)c2ccc(-c3nc([C@@H]4CCCN4C(=O)c4ccnc(Cl)n4)n4ccnc(N)c34)cc2)c1 [Example 129, (S)-4-(8-amino-3-(1-(2-chloropyrimidine-4-carbonyl)pyrrolidin-2-yl)imidazo[1,5-a]pyrazin-1-yl)-N-(4-methylpyridin-2-yl)benzamide] | ≥ 1000 | ≥ 1 | ≥ 1000 | ≥ 1 | < 10 | – | – | – | – | – | – |
| CC#CC(=O)N1CCC[C@H]1c1nc(-c2ccc(C(=O)Nc3cc(C#N)ccn3)cc2)c2c(N)nccn12 [Example 130, (S)-4-(8-amino-3-(1-but-2-ynoylpyrrolidin-2-yl)imidazo[1,5-a]pyrazin-1-yl)-N-(4-cyanopyridin-2-yl)benzamide] | ≥ 1000 | ≥ 1 | ≥ 1000 | ≥ 1 | < 10 | – | – | – | – | – | – |
| CC#CC(=O)N1CCC[C@H]1c1nc(-c2ccc(C(=O)Nc3cc(CC)ccn3)cc2)c2c(N)nccn12 [Example 131, (S)-4-(8-amino-3-(1-but-2-ynoylpyrrolidin-2-yl)imidazo[1,5-a]pyrazin-1-yl)-N-(4-ethylpyridin-2-yl)benzamide] | ≥ 1000 | ≥ 1 | ≥ 1000 | ≥ 1 | < 10 | – | – | – | – | – | – |
| CC#CC(=O)N1CCC[C@H]1c1nc(-c2ccc(C(=O)Nc3cc(-c4ccccc4)ccn3)cc2)c2c(N)nccn12 [Example 132, (S)-4-(8-amino-3-(1-but-2-ynoylpyrrolidin-2-yl)imidazo[1,5-a]pyrazin-1-yl)-N-(4-phenylpyridin-2-yl)benzamide] | ≥ 1000 | ≥ 1 | ≥ 1000 | – | < 10 | – | – | 0.1 to 1 | <1 | – | – |
| C=CC(=O)N1CCC[C@H]1c1nc(-c2ccc(C(=O)Nc3cc(-c4ccccc4)ccn3)cc2)c2c(N)nccn12 [Example 133, (S)-4-(3-(1-acryloylpyrrolidin-2-yl)-8-aminoimidazo[1,5-a]pyrazin-1-yl)-N-(4-phenylpyridin-2-yl)benzamide] | ≥ 1000 | – | ≥ 1000 | – | < 10 | – | – | 0.1 to 1 | <1 | <1 | 0.1 to 1 |
